Several values for one entry are separate records, joined by “and”; a condition that tells them apart may be missing. Equal entries are not always repeated. Entries after “also recorded” stand apart in the source; their conditions may differ. Where two headings read alike, the source gives them in different places.
What was measured:
PI-3K = assay: In vitro kinase assay, PI-3K; type: biochemical; conditions: RTK table
pSTAT5 in MV4;11 tumors = assay: Target modulation in vivo, pSTAT5 in MV4;11 tumors; conditions: Mus musculus, MV4-11, po
Akt⅓ = assay: In vitro kinase assay, Akt; type: biochemical; conditions: RTK table
[1] = tested on: MV4;11 cells disseminated to bone marrow; assay: Intravenous MV4;11 bone marrow engraftment model; type: in vivo, SCID-NOD mice
Method: For processing of bone marrow (BM) cells from the mouse MV4;11 engraftment model, femurs were purged with cold saline and red blood cells lysed with FACS lysis buffer (Becton Dickinson). Percent engraftment of human leukemic cells in mouse BM was determined by staining with anti-human HLA-A,B,C-FITC (vs. isotype-matched antibody-FITC control) (BD Pharmingen).
[…]. […] Mice were monitored daily and were euthanized when moribund or early signs of loss of hind limb motility. Increased life span (ILS) of treated mice was calculated as a percent increase in median survival time (MST) vs. vehicle treated control mice.
[…]. In this model, MV4;11 cells disseminate to the bone marrow (BM), pathologically mimicking a disease pattern similar to human leukemia. […]. Histological analyses and flow cytometry were used to quantify the % engraftment of MV4;11 cells in BM. In flow cytometric analyses, human MV4;11 cells were identified in mouse BM with an anti-human HLA-A,B,C antibody which binds to an epitope on human MHCI. In vehicle-treated mice, approximately 2-19% of total isolated BM cells consisted of engrafted MV4;11 cells (day 51,). This was also corroborated by immunohistochemistry with an antibody to human mitochondria which stains MV4;11 cells identifying the human cells in the mouse BM matrix. […].

[2] = tested on: other kinases in the PI3K/Akt and MAPK(K) pathways; assay: Selectivity test against other kinases; type: biochemical; conditions: negligible activity
PC-3M-luc tumor cells = assay: PC-3M-luc bone metastatic prostate model; type: in vivo, nude mice
Method: Cell lines. Metastatic human prostate cell line PC-3M expressing null p53, del PTEN, VEGFR, FGFR and stably transfected with a construct of luciferase were obtained under a licensing agreement with Xenogen.
In vivo efficacy studies. […]. Animals received sterile rodent chow and water ad libitum and were housed in sterile filter-top cages with 12 hour light/dark cycles. All experiments were conducted under the guidelines of the Association for Assessment and Accreditation of Laboratory Animal Care International. PC-3M luc bone metastatic model. Human prostate cancer cell line PC-3M-luc cells (1.5×10^6 cells) stably transfected with a construct of luciferase were injected via intracardiac injections. Bioluminescent imaging (Xenogen's IVIS® imaging system) was used to non-invasively monitor the in vivo growth and metastasis of PC-3M-luc tumors after cell inoculation. Nearly all PC-3M-luc tumor cell-injected animals developed prostate lesions, which were mainly localized in the femur, and mandibles. […]. Mice were monitored daily and were euthanized when moribund.
Immunohistochemistry. Bone (femurs, mandible) samples were decalcified (Protocol™, Fisher Diagnostics, Middletown, Va.). Paraffin blocks were sectioned to […] thickness and placed on positively charged glass slides. Tissues were stained with hematoxylin and eosin for general tissue morphology and identification of PC-3M cells in bone.
Nude mice were inoculated with PC-3M-Luc cells intracardiacally with 1.5×10^6 cells. […]. The PC-3M-luc cell lines were purchased from Xenogen and the mice were imaged using Xenogen's IVIS® imaging system.

4T1 murine breast tumor = 4T1 murine breast tumor model (primary tumor, liver and lung metastases); type: in vivo, BALB/c mice; conditions: for Liver # of Metastases Mean ± SD / Lung # of Metastases Mean ± SD: after 17 days of dosing
pERK in MV4;11 cells = pERK in MV4;11 cells (flow cytometry, Western blot); conditions: Homo sapiens, MV4-11, 3 h, read-out: Inhibition of pERK
P-glycoprotein = P-glycoprotein (Homo sapiens, UniProt P08183); assay: P-glycoprotein substrate status; type: in vitro ADME
Sequence of P-glycoprotein (P08183 whole entry): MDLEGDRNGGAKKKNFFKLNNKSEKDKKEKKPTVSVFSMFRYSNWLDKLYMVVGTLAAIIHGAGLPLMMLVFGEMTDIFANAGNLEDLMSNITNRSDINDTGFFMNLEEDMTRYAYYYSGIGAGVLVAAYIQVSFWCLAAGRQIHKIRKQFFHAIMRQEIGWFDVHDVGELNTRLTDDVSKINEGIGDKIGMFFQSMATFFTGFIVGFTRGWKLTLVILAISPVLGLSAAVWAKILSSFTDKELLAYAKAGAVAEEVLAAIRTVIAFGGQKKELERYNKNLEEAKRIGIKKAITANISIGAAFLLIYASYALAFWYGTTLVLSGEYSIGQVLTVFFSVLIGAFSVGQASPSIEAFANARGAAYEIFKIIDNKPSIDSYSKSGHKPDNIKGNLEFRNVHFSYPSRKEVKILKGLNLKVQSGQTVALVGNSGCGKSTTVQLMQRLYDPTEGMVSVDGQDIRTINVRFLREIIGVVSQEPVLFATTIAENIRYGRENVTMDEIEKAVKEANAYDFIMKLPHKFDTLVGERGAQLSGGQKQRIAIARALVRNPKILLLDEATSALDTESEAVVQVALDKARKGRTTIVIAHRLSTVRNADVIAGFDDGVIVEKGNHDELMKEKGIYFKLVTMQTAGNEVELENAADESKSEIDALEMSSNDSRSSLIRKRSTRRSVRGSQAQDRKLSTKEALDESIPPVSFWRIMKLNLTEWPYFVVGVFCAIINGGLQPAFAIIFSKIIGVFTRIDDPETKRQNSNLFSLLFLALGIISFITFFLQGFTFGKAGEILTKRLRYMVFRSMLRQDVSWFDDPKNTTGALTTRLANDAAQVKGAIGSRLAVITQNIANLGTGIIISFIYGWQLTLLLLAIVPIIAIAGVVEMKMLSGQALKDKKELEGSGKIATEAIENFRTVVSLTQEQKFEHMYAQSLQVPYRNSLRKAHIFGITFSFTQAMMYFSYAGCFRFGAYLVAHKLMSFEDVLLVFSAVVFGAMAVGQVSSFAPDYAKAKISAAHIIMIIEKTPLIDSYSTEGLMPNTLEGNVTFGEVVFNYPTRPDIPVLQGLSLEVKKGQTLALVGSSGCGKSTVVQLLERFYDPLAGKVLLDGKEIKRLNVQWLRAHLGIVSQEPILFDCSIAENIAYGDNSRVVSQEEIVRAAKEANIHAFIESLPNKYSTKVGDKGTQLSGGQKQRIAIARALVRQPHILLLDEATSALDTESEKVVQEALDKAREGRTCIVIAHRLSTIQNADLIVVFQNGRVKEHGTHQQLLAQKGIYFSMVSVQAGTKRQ

pFLT3 in MV4;11 tumors = assay: Target modulation in vivo, pFLT3 in MV4;11 tumors; parameters: species or system SCID-NOD mice; conditions: 10 mg/kg/d p.o., 48 hours post dose
pSTAT5 in MV4;11 cells = pSTAT5 in MV4;11 cells (flow cytometry, Western blot); conditions: Homo sapiens, MV4-11, 3 h, read-out: Inhibition of pSTAT5
[3] = tested on: VEGF production in MV4;11 cells; assay: VEGF ELISA on MV4;11 culture supernatants; type: cell-based; conditions: Homo sapiens; MV4;11, 48 hours; read-out: EC50 inhibition of VEGF production
ERK-½ = assay: In vitro kinase assay, ERK; type: biochemical; conditions: RTK table

With `CN1CCN(c2ccc3nc(-c4c(N)c5c(F)cccc5[nH]c4=O)[nH]c3c2)CC1` [Compound 1, 4-Amino-5-fluoro-3-[6-(4-methylpiperazin-1-yl)-1H-benzimidazol-2-yl]quinolin-2(1H)-one] the IC50 (PI-3K) was > 10 µM, the inhibition at 10 mg/kg (pSTAT5 in MV4;11 tumors; 8 h, read-out: Inhibition of STAT5 phosphorylation in tumors) was ~90% and the inhibition at 10 mg/kg (pSTAT5 in MV4;11 tumors; 24 h, read-out: Inhibition of STAT5 phosphorylation in tumors) was ~85%. For the same compound, the inhibition at 10 mg/kg (pSTAT5 in MV4;11 tumors; 48 h, read-out: Inhibition of p-STAT5 in tumors) was ~60%, the IC50 (Akt⅓) was > 10 µM and the “Survival (Kaplan-Meier, FIG. 6)” value ([1]; 20 mg/kg daily or 7 days on/7 days off) was “prolongs survival”. For the same compound, the “Median survival time (MST)” value ([1]; 20 mg/kg p.o. 7 days on/7 days off, 5 cycles) was 118 days, the “Increased life span (ILS)” value ([1]; 20 mg/kg p.o. 7 days on/7 days off, 5 cycles, vs. vehicle) was 131% and the “Long-term survivors (MST >160 days)” value ([1]; 20 mg/kg p.o. daily) was 4 mice. The “Median survival time (MST)” value ([1]; 20 mg/kg p.o. daily, day 23-100) was 134 days, the “Tumor cells in BM of surviving mice (anti-human mitochondria IHC)” value ([1]; day 167) was “no evidence of tumor cells” and the IC50 [2] was > 10 µM. The “Photon counts / metastatic growth of PC-3M-luc cells” value (PC-3M-luc tumor cells; 50 mg/kg p.o. daily, vs. vehicle) was “trend to inhibit metastatic growth; also recorded: trend of decreased photon count; also recorded: trend to inhibit PC-3M-luc photon counts”, the “Efficacy compared with taxol (15 mg/kg)” value (PC-3M-luc tumor cells; 50 mg/kg/d p.o.) was “more effective than taxol treatment” and the “Mean Tumor Volume day 18” value (4T1 murine breast tumor; 10 mg/kg p.o. once daily) was 1798 mm^3. The “Treated/Control day 18” value (4T1 murine breast tumor; 10 mg/kg p.o. once daily) was 0.80, the “Max % Inhibition (study day), primary tumor growth” value (shortened to “Max % Inhibition (study day)”) (4T1 murine breast tumor; 10 mg/kg p.o. once daily, d 11) was 32% and 32 (d 11) % and the “Liver # of Metastases Mean ± SD” value (4T1 murine breast tumor; 10 mg/kg) was 22 ± 32. The “Lung # of Metastases Mean ± SD” value (4T1 murine breast tumor; 10 mg/kg) was 36 ± 32, the “Mean Tumor Volume day 18” value (4T1 murine breast tumor; 30 mg/kg p.o. once daily) was 1246 mm^3 and the “Treated/Control day 18” value (4T1 murine breast tumor; 30 mg/kg p.o. once daily) was 0.55. For the same compound, the “Max % Inhibition (study day)” value (4T1 murine breast tumor; 30 mg/kg p.o. once daily, d 18) was 45% and 45 (d 18) %, the “Liver # of Metastases Mean ± SD” value (4T1 murine breast tumor; 30 mg/kg) was 3 ± 4 and the “Lung # of Metastases Mean ± SD” value (4T1 murine breast tumor; 30 mg/kg) was 26 ± 26. The “Mean Tumor Volume day 18” value (4T1 murine breast tumor; 60 mg/kg p.o. once daily) was 1248 mm^3, the “Treated/Control day 18” value (4T1 murine breast tumor; 60 mg/kg p.o. once daily) was 0.56 and the “Max % Inhibition (study day)” value (4T1 murine breast tumor; 60 mg/kg p.o. once daily, d 11) was 50% and 50 (d 11) %. For the same compound, the “Liver # of Metastases Mean ± SD” value (4T1 murine breast tumor; 60 mg/kg) was 1 ± 1, the “Lung # of Metastases Mean ± SD” value (4T1 murine breast tumor; 60 mg/kg) was 24 ± 11 and the “Mean Tumor Volume day 18” value (4T1 murine breast tumor; 100 mg/kg p.o. once daily) was 624 mm^3. The “Treated/Control day 18” value (4T1 murine breast tumor; 100 mg/kg p.o. once daily) was 0.28, the “Max % Inhibition (study day)” value (4T1 murine breast tumor; 100 mg/kg p.o. once daily, d 14) was 74% and 74 (d 14) % and the “Liver # of Metastases Mean ± SD” value (4T1 murine breast tumor; 100 mg/kg) was 4 ± 13. For the same compound, the “Lung # of Metastases Mean ± SD” value (4T1 murine breast tumor; 100 mg/kg) was 24 ± 30, the “Mean Tumor Volume day 18” value (4T1 murine breast tumor; 150 mg/kg p.o. once daily) was 402 mm^3 and the “Treated/Control day 18” value (4T1 murine breast tumor; 150 mg/kg p.o. once daily) was 0.18. For the same compound, the “Max % Inhibition (study day)” value (4T1 murine breast tumor; 150 mg/kg p.o. once daily, d 18) was 82% and 82 (d 18) %, the “Liver # of Metastases Mean ± SD” value (4T1 murine breast tumor; 150 mg/kg) was 0 ± 0 and the “Lung # of Metastases Mean ± SD” value (4T1 murine breast tumor; 150 mg/kg) was 2 ± 3. For the same compound, the “Reduction of number of liver tumor nodules versus controls” value (4T1 murine breast tumor; 30, 60 and 100 mg/kg treatments) was ≥ 77%, the inhibition at 0.1 µM (pERK in MV4;11 cells) was > 50% and the P-GP substrate status (P-glycoprotein) was “not a P-GP substrate”. The Phospho-FLT3 in tumors (pFLT3 in MV4;11 tumors) was “returned closer to baseline levels”, the inhibition at 0.1 µM (pSTAT5 in MV4;11 cells) was > 50% and the EC50 [3] was 0.001 to 0.01 µM. For the same compound, the IC50 (ERK-½) was > 10 µM.
